According to PMC9133015 (Nature Communications, 2022):
Where “and” joins values, the source holds several entries; their conditions need not be identical. Equal values may be shown once. Entries after “also recorded” stand apart in the source; their conditions may differ.

Experiments:
PC-3 cells [1] = assay: Invasion assay (transwell); assay type: cell-based, human; conditions: for Cell invasion (cell number): PC-3, replicates
22Rv1 cells [2] = assay: Apoptosis assay (Annexin V-APC/PI flow cytometry); assay type: cell-based, human; conditions: for Apoptosis (%): replicates
DU145 cells [3] = assay: Apoptosis assay (Annexin V-APC/PI flow cytometry); assay type: cell-based, human; conditions: for Apoptosis (%): replicates
PC-3 cells [4] = assay: Apoptosis assay (Annexin V-APC/PI flow cytometry); assay type: cell-based, human; conditions: for Apoptosis (%): PC-3, replicates
22Rv1 cells [5] = assay: Cell cycle assay (PI flow cytometry); assay type: cell-based, human; conditions: for Cell cycle percentages ( % ) G0/G1 / Cell cycle percentages ( % ) G2/M / Cell cycle percentages ( % ) S: replicates
DU145 cells [6] = assay: Cell cycle assay (PI flow cytometry); assay type: cell-based, human; conditions: for Cell cycle percentages ( % ) G0/G1 / Cell cycle percentages ( % ) G2/M / Cell cycle percentages ( % ) S: replicates
PC-3 cells [7] = assay: Cell cycle assay (PI flow cytometry); assay type: cell-based, human; conditions: for Cell cycle percentages ( % ) G0/G1 / Cell cycle percentages ( % ) G2/M / Cell cycle percentages ( % ) S: PC-3, replicates
DU145 xenograft = assay: In vivo antitumor activity, DU145 xenograft mouse model; parameters: species or system BALB/c nude mice; conditions: for Tumor weight (Fig. 7c): individual mice; for Tumor volume (Fig. 7a): in cm³ (unit assumed)
[8] = 22Rv1 cells, concentration-dependent
[9] = DU145 cells, concentration-dependent
[10] = PC-3 cells, concentration-dependent
[11] = YK-2-69 (100 mg/kg), Day 37, individual mice, 100 mg/kg
[12] = YK-2-69 (100 mg/kg), Day 39, individual mice, 100 mg/kg
[13] = YK-2-69 (100 mg/kg), Day 41, individual mice, 100 mg/kg
[14] = YK-2-69 (100 mg/kg), Day 43, individual mice, 100 mg/kg
[15] = YK-2-69 (100 mg/kg), Day 45, individual mice, 100 mg/kg
[16] = YK-2-69 (100 mg/kg), Day 49, individual mice, 100 mg/kg
[17] = YK-2-69 (200 mg/kg), Day 1, individual mice, 200 mg/kg
[18] = YK-2-69 (200 mg/kg), Day 5, individual mice, 200 mg/kg

CCN1CCN(C(=O)c2ccc(Nc3ncc(F)c(-c4ccc5nc(N(C)C)sc5c4)n3)nc2)CC1 [YK-2-69]
Cell invasion (cell number) (PC-3 cells [1]; 1 µM): 2987 cell number and 3005 cell number and 2946 cell number
Cell invasion (cell number) (PC-3 cells [1]; 2 µM): 2589 cell number and 2699 cell number and 2710 cell number
Cell invasion (cell number) (PC-3 cells [1]; 4 µM): 489 cell number and 503 cell number and 468 cell number
invasion (in words) (PC-3 cells [1]; PC-3 cells, dose-dependent): remarkably inhibited the migration and invasion
Apoptosis (%) (22Rv1 cells [2]; 22Rv1, 0.5 μM): 10.56% and 11.41% and 12.03%
Apoptosis (%) (22Rv1 cells [2]; 22Rv1, 1 μM): 18.52% and 20.96% and 19.24%
Apoptosis (%) (22Rv1 cells [2]; 22Rv1, 2 μM): 26.56% and 24.71% and 24.31%
apoptosis (in words) (22Rv1 cells [2]; [8]): significant increase of the apoptotic cell population
Apoptosis (%) (DU145 cells [3]; DU145, 2 μM): 9.32% and 10.11% and 8.62%
Apoptosis (%) (DU145 cells [3]; DU145, 4 μM): 11.15% and 12.55% and 13.62%
Apoptosis (%) (DU145 cells [3]; DU145, 8 μM): 26.62% and 31.08% and 30.25%
apoptosis (in words) (DU145 cells [3]; [9]): significant increase of the apoptotic cell population
Apoptosis (%) (PC-3 cells [4]; 0.5 µM): 5.98% and 6.29% and 6.68%
Apoptosis (%) (PC-3 cells [4]; 1 µM): 7.85% and 8.04% and 8.54%
Apoptosis (%) (PC-3 cells [4]; 2 µM): 12.28% and 13.62% and 14.23%
apoptosis (in words) (PC-3 cells [4]; [10]): significant increase of the apoptotic cell population
Cell cycle percentages ( % ) G0/G1 (22Rv1 cells [5]; 22Rv1, 0.5 μM): 58.59% and 61.06% and 63.23%
Cell cycle percentages ( % ) G2/M (22Rv1 cells [5]; 22Rv1, 0.5 μM): 21.63% and 20.2% and 19.61%
Cell cycle percentages ( % ) S (22Rv1 cells [5]; 22Rv1, 0.5 μM): 19.78% and 18.74% and 17.16%
Cell cycle percentages ( % ) G0/G1 (22Rv1 cells [5]; 22Rv1, 1 μM): 66.26% and 67.95% and 69.26%
Cell cycle percentages ( % ) G2/M (22Rv1 cells [5]; 22Rv1, 1 μM): 16.83% and 16.42% and 15%
Cell cycle percentages ( % ) S (22Rv1 cells [5]; 22Rv1, 1 μM): 16.91% and 15.43% and 15.74%
Cell cycle percentages ( % ) G0/G1 (22Rv1 cells [5]; 22Rv1, 2 μM): 71.88% and 73.05% and 74.35%
Cell cycle percentages ( % ) G2/M (22Rv1 cells [5]; 22Rv1, 2 μM): 13.63% and 11.7% and 11.68%
Cell cycle percentages ( % ) S (22Rv1 cells [5]; 22Rv1, 2 μM): 14.49% and 15.25% and 13.97%
cell cycle (in words) (22Rv1 cells [5]; [8]): arrested cell cycle at the G0/G1 phase
Cell cycle percentages ( % ) G0/G1 (DU145 cells [6]; DU145, 2 μM): 55.97% and 56.66% and 57.2%
Cell cycle percentages ( % ) G2/M (DU145 cells [6]; DU145, 2 μM): 25.7% and 23.86% and 21.92%
Cell cycle percentages ( % ) S (DU145 cells [6]; DU145, 2 μM): 18.33% and 19.48% and 20.88%
Cell cycle percentages ( % ) G0/G1 (DU145 cells [6]; DU145, 4 μM): 57.12% and 58.35% and 59.96%
Cell cycle percentages ( % ) G2/M (DU145 cells [6]; DU145, 4 μM): 23.02% and 22.58% and 21.06%
Cell cycle percentages ( % ) S (DU145 cells [6]; DU145, 4 μM): 19.86% and 19.07% and 18.98%
Cell cycle percentages ( % ) G0/G1 (DU145 cells [6]; DU145, 8 μM): 61.67% and 60.91% and 63.23%
Cell cycle percentages ( % ) G2/M (DU145 cells [6]; DU145, 8 μM): 18.53% and 21.24% and 18.93%
Cell cycle percentages ( % ) S (DU145 cells [6]; DU145, 8 μM): 19.8% and 17.85% and 17.84%
cell cycle (in words) (DU145 cells [6]; [9]): arrested cell cycle at the G0/G1 phase
Cell cycle percentages ( % ) G0/G1 (PC-3 cells [7]; 0.5 µM): 55.96% and 58.42% and 57.82%
Cell cycle percentages ( % ) G0/G1 (PC-3 cells [7]; 1 µM): 58.52% and 60.06% and 62.96%
Cell cycle percentages ( % ) G0/G1 (PC-3 cells [7]; 2 µM): 64.67% and 62.48% and 65.02%
Cell cycle percentages ( % ) G2/M (PC-3 cells [7]; 0.5 µM): 27.56% and 26.05% and 24.61%
Cell cycle percentages ( % ) G2/M (PC-3 cells [7]; 1 µM): 26.02% and 25.73% and 24.02%
Cell cycle percentages ( % ) G2/M (PC-3 cells [7]; 2 µM): 24.12% and 24.24% and 22.16%
Cell cycle percentages ( % ) S (PC-3 cells [7]; 0.5 µM): 16.48% and 15.53% and 17.57%
Cell cycle percentages ( % ) S (PC-3 cells [7]; 1 µM): 15.46% and 14.21% and 13.02%
Cell cycle percentages ( % ) S (PC-3 cells [7]; 2 µM): 11.21% and 13.28% and 12.82%
cell cycle (in words) (PC-3 cells [7]; [10]): arrested cell cycle at the G0/G1 phase
body weight of mice (in words) (DU145 xenograft; DU145 xenograft, 200 mg/kg orally once a day): increased gradually
antitumor activity (in words) (DU145 xenograft; DU145 xenograft, 200 mg/kg orally once a day, seven weeks, 200 mg/kg): much better antitumor activities than both enzalutamide and palbociclib; also recorded: decreased the volume of tumor since the 31st day
Tumor weight (Fig. 7c) (DU145 xenograft; High dose, in g (unit assumed)): 0.51 and 0.47 and 0.43 and 0.45 and 0.62 and 0.73 and 0.69 and 0.41
Tumor weight (Fig. 7c) (DU145 xenograft; Low dose, in g (unit assumed)): 1.34 and 1.32 and 1.29 and 1.36 and 1.47 and 1.24 and 1.68 and 1.73 and 1.54 and 1.49
Body weight (Fig. 7b) (DU145 xenograft; [11]): 26.5 and 24.2 and 25.7 and 25.5 (2×) and 24.9 and 24.6 and 25.2 and 25.6 and 26.6
Tumor volume (Fig. 7a) (DU145 xenograft; [11]): 0.9849 and 0.8117 and 1.322 and 0.8631 and 0.9203 and 0.6445 and 0.8644 and 1.073 and 1.152 and 1.1772
Body weight (Fig. 7b) (DU145 xenograft; [12]): 26.2 and 24.5 and 25.9 and 25.8 (2×) and 25.3 and 24.9 and 25.4 and 26 and 26.8
Tumor volume (Fig. 7a) (DU145 xenograft; [12]): 0.957 and 0.8113 and 1.305 and 0.8461 and 0.9452 and 0.6025 and 0.7668 and 1.032 and 1.21 and 1.322
Body weight (Fig. 7b) (DU145 xenograft; [13]): 26.4 and 24.6 and 26.1 and 25.8 and 25.6 (2×) and 25.2 and 26.3 and 26 and 26.5
Tumor volume (Fig. 7a) (DU145 xenograft; [13]): 1.01 and 0.8586 and 1.367 and 0.9073 and 0.9955 and 0.6291 and 0.7765 and 1.063 and 1.256 and 1.304
Body weight (Fig. 7b) (DU145 xenograft; [14]): 26.7 and 25 and 26.3 (2×) and 25.9 (2×) and 25.4 and 26.5 and 25.7 and 26.6
Tumor volume (Fig. 7a) (DU145 xenograft; [14]): 1.081 and 0.9018 and 1.428 and 0.9736 and 1.066 and 0.6924 and 0.8141 and 1.105 and 1.304 and 1.393
Body weight (Fig. 7b) (DU145 xenograft; [15]): 26.9 (2×) and 25.2 and 26.7 and 26.2 and 26.3 and 25.7 and 26.8 and 25.9 and 26.5
Tumor volume (Fig. 7a) (DU145 xenograft; [15]): 1.137 and 0.9183 and 1.533 and 1.03 and 1.104 and 0.7734 and 0.8511 and 1.184 and 1.29 and 1.475
Tumor volume (Fig. 7a) (DU145 xenograft; YK-2-69 (100 mg/kg), Day 47, individual mice, 100 mg/kg): 1.209 and 0.991 and 1.624 and 1.045 and 1.005 and 0.829 and 0.881 and 1.225 and 1.336 and 1.553
Body weight (Fig. 7b) (DU145 xenograft; YK-2-69 (100 mg/kg), Day 47, individual mice, 100 mg/kg, in g (unit assumed)): 27.2 and 25.5 and 26.9 and 26.3 and 26.6 and 25.8 and 27.1 and 26 and 26.8 and 27.4
Body weight (Fig. 7b) (DU145 xenograft; [16]): 27.5 and 25.8 and 27.1 (3×) and 26.6 and 26.9 and 26.1 and 27.3 and 26.2
Tumor volume (Fig. 7a) (DU145 xenograft; [16]): 1.289 and 1.004 and 1.711 and 1.157 and 1.055 and 0.8821 and 0.8937 and 1.296 and 1.303 and 1.663
Body weight (Fig. 7b) (DU145 xenograft; [17]): 19.6 and 20.5 and 20.2 (2×) and 19.9 and 20.3 and 20.7 and 21.4 and 21 and 20
Tumor volume (Fig. 7a) (DU145 xenograft; [17]): 0.07862 and 0.07877 and 0.07202 and 0.06915 and 0.0797 and 0.06867 and 0.07232 and 0.09045 and 0.0645 and 0.09096
Tumor volume (Fig. 7a) (DU145 xenograft; YK-2-69 (200 mg/kg), Day 3, individual mice, 200 mg/kg): 0.1045 and 0.1116 and 0.1049 and 0.08973 and 0.1165 and 0.1011 and 0.1007 and 0.1453 and 0.08834 and 0.1272
Body weight (Fig. 7b) (DU145 xenograft; YK-2-69 (200 mg/kg), Day 3, individual mice, 200 mg/kg, in g (unit assumed)): 19.9 and 20.6 and 20.5 and 20.2 and 20.7 and 21.5 and 21.3 and 20.3 and 20.1
Body weight (Fig. 7b) (DU145 xenograft; YK-2-69 (200 mg/kg), Day 3, individual mice, in g (unit assumed)): 21
Body weight (Fig. 7b) (DU145 xenograft; [18]): 20.2 and 20.9 and 20.8 and 20.4 and 21.1 (2×) and 21.8 and 21.6 and 20.3 and 20.5
Tumor volume (Fig. 7a) (DU145 xenograft; [18]): 0.1323 and 0.1488 and 0.1486 and 0.1179 and 0.1568 and 0.1343 and 0.1497 and 0.2074 and 0.1183 and 0.1702
